Reference: patent US10538496B2, “Methods using HDAC11 inhibitors” (FORMA Therapeutics, Inc., priority 2016, dated 2020)

Legend:
HEL 92.1.7 cells = assay: Cell proliferation assay (CCK8); format: cell-based; conditions: 48h
Protocol: (§1) This example describes inhibition of in vitro cell proliferation with exemplary HDAC11 inhibitors. The effects of selective HDAC11 inhibitors on cell proliferation were measured in cell lines containing the MPN-associated mutations MPL W515L (Ba/F3 MPL W515L) and JAK2 V617F (Ba/F3 JAK2 V617F, HEL 92.1.7, SET-2). HEL 92.1.7 and SET-2 cells were purchased from the ATCC and DSMZ, respectively. Ba/F3 cells overexpressing either MPLW515L or JAK2V617F, which were cytokine independent, were generated by transforming Ba/F3 cells with retroviruses overexpressing either MPL W515L or JAK2V617F. For survival assays, cells were seeded in 96-well plates at the density of 0.1 million/ml with addition of indicated compounds and incubated at 37° C. for 48h. CCK8 solution (Dojindo, Rockville, Md.) was added and absorbance at 450 nm was measured after 3 hours of incubation. Readings were normalized to dimethylsulfoxide (DMSO)-treated wells.

SET-2 cells = assay: Cell proliferation assay (CCK8); format: cell-based; conditions: FIG. 4 legend
Protocol: as §1

N#CC[C@H](C1CCCC1)n1cc(-c2ncnc3[nH]ccc23)cn1 [ruxolitinib, reference compound]
growth of the HEL 92.1.7 cell line (HEL 92.1.7 cells): inhibited
growth of SET-2 cell line (SET-2 cells): inhibited
